The structures appear in SMILES notation.

The experiment deals with T1, ecto-5′-nucleotidase (Nt5e) (Streptococcus sanguinis, UniProt I3RY26).
T1 construct: native enzyme on whole cells of S. sanguinis strain 133-79
The experiment can be described thus: whole-cell AMPase activity (phosphate release) dose-inhibition and Michaelis-Menten analysis. The class given is cell-based.

T1 sequence (I3RY26 entry or part of it): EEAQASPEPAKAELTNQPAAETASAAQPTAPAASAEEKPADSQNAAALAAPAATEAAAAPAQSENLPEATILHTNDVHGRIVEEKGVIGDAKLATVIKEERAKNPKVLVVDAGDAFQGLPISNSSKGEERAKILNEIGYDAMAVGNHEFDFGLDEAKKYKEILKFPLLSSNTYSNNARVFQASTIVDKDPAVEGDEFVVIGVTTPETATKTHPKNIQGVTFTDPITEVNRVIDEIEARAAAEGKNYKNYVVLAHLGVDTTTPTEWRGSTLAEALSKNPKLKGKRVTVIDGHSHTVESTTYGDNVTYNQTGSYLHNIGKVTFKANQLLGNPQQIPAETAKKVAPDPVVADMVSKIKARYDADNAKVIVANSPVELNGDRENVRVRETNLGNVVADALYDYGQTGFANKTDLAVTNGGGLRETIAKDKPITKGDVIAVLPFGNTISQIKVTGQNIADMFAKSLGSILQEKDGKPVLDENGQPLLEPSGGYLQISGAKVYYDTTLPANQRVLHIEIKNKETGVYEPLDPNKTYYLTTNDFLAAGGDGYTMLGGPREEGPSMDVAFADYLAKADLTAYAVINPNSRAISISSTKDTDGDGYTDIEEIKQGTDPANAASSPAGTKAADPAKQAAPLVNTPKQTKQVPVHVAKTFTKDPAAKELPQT

In general, IC50 refers to the concentration that gives 50% inhibition. As for `Nc1ncnc2c1ncn2[C@@H]1O[C@H](COP(=O)(O)CP(=O)(O)O)[C@@H](O)[C@H]1O` [APCP], the IC50 is 8.8 ± 3.8 µM.
